Data as given in paper PMC8161026, “Synthesis and Anticancer Activity Evaluation of 5-[2-Chloro-3-(4-nitrophenyl)-2-propenylidene]-4-thiazolidinones” (Molecules, 2021).
Where two headings read alike, the source gives them in different places.

Tests used:
[1] = test system: 60 tumor cell lines; experiment: NCI60 full panel MG_MID; conditions: for GI50 / CC50: Homo sapiens; for CC50: read-out: 60 lines MG_MID, LC50; for 60 lines MG_MID, TGI: mean over all cell lines
Procedure: At the first stage of biological activity study, the antitumor activity screening of the selected compounds 2b, 2c, 2f, 2h, and 2j was performed according to the NCI DTP (USA) standard protocol at the concentrations ranging from 10^−4 to 10^−8 M toward 60 tumor cell lines. The percentage of growth was evaluated spectrophotometrically versus controls not treated with test agents after 48 h exposure and using SRB protein assay to estimate cell viability or growth. Dose–response parameters were calculated for each cell line: GI50—molar concentration of the compound that inhibits 50% net cell growth; TGI—molar concentration of the compound leading to the total inhibition; and LC50—molar concentration of the compound leading to 50% net cell death. Furthermore, mean graph midpoints (MG_MID) were calculated for each of the parameters, giving an average activity parameter over all cell lines for the tested compound. For the MG_MID calculation, insensitive cell lines were included with the highest concentration tested.
Primary anticancer assay was performed on a panel of approximately sixty human tumor cell lines derived from nine neoplastic diseases, in accordance with the protocol of the Drug Evaluation Branch, National Cancer Institute, Bethesda. Tested compounds were added to the culture at a single concentration (10^−5 M) and the cultures were incubated for 48 h. End point determinations were made with a protein binding dye, sulforhodamine B (SRB). […] The percentage growth was evaluated spectrophotometrically versus controls not treated with test agents.
Dose–response parameters (GI50, TGI, LC50) were calculated for each compound. […] The drug concentration resulting in total growth inhibition (TGI) was calculated from Ti = Tz. The LC50 (concentration of drug resulting in a 50% reduction in the measured protein at the end of the drug treatment as compared to that at the beginning) indicating a net loss of cells following treatment was calculated from [(Ti − Tz)/Tz] × 100 = −50 (2). Values were calculated for each of these parameters if the level of activity was reached; however, if the effect was not reached or was excessive, the value for that parameter was expressed as more or less than the maximum or minimum concentration tested.

[2] = test system: AGS (gastric cancer); experiment: MTT cell viability assay; format: cell-based; conditions: Homo sapiens, 24 h
Procedure: (§1) In the second stage of the research, Ciminalum-thiazolidinone hybrids were investigated for antitumor activity on the lines of gastric cancer (AGS), human colon cancer (DLD-1), and breast cancers (MCF-7 and MDA-MB-231). The study was performed in the MTT assay according to the method described previously. The studied cancer line was sensitive to the action of the studied compounds that inhibited its growth in micromolar ranges of GI50. The hit compounds that inhibited the growth of all four cancer lines with the lowest GI50 values were [5-[2-chloro-3-(4-nitrophenyl)prop-2-enylidene]-rhodanines 2c, 2d, 2h, and 2i (Table 4).

[3] = test system: DLD-1 (human colon cancer); experiment: MTT cell viability assay; format: cell-based; conditions: DLD-1, MTT, 24 h
Procedure: as §1

[4] = test system: MCF-7 (breast cancer); experiment: MTT cell viability assay; format: cell-based; conditions: Homo sapiens, MCF7; MCF-7, MTT, 24 h
Procedure: as §1

[5] = test system: MDA-MB-231 (breast cancer); experiment: MTT cell viability assay; format: cell-based; conditions: Homo sapiens; MDA-MB-231, MTT, 24 h
Procedure: as §1

[6] = test system: NCI-H23; conditions: NCI-H23 (Non-Small Cell Lung Cancer), 48 h, SRB
[7] = test system: LOX IMVI; conditions: LOX IMVI (Melanoma), 48 h, SRB
[8] = test system: SK-MEL-28; conditions: SK-MEL-28 (Melanoma), 48 h, SRB
[9] = test system: 786-0; conditions: 786-0 (Renal Cancer), 48 h, SRB
[10] = test system: T-47D; conditions: T-47D (Breast Cancer), 48 h, SRB
[11] = test system: HCT-116; experiment: cells; conditions: Homo sapiens, HCT-116, 48 h; for CC50: read-out: LC50
[12] = test system: SNB-75; experiment: cells; conditions: Homo sapiens, SNB-75, 48 h; for CC50: read-out: LC50
[13] = test system: SK-MEL-2; experiment: cells; conditions: Homo sapiens, SK-MEL-2, 48 h; for CC50: read-out: LC50
[14] = test system: NCI-322M; experiment: NCI DTP 60 cell line screen, SRB; conditions: 48 h; for GI50 / CC50: Homo sapiens, NCI-322M; for CC50: read-out: LC50; for TGI: NCI-322M (Non-Small Cell Lung Cancer), SRB
[15] = test system: Colo 205; experiment: NCI DTP 60 cell line screen, SRB; conditions: for TGI: Colo 205 (Colon Cancer), 48 h, SRB; for GI50 / CC50: Homo sapiens, COLO 205, 48 h; for CC50: read-out: LC50
[16] = test system: SF-268; experiment: NCI DTP 60 cell line screen, SRB; conditions: for GI50 / CC50: Homo sapiens, SF-268, 48 h; for CC50: read-out: LC50; for TGI: SF-268 (CNS Cancer), 48 h, SRB
[17] = test system: SF-295; experiment: NCI DTP 60 cell line screen, SRB; conditions: for GI50 / CC50: Homo sapiens, SF-295, 48 h; for CC50: read-out: LC50; for TGI: SF-295 (CNS Cancer), 48 h, SRB
[18] = test system: IGROV1; experiment: NCI DTP 60 cell line screen, SRB; conditions: for GI50 / CC50: Homo sapiens, IGROV-1, 48 h; for CC50: read-out: LC50; for TGI: IGROV1 (Ovarian Cancer), 48 h, SRB
[19] = test system: OVCAR-3; experiment: NCI DTP 60 cell line screen, SRB; conditions: for GI50 / CC50: Homo sapiens, OVCAR-3, 48 h; for CC50: read-out: LC50; for TGI: OVCAR-3 (Ovarian Cancer), 48 h, SRB
[20] = test system: MCF-7; experiment: NCI DTP 60 cell line screen, SRB; conditions: for GI50 / CC50: Homo sapiens, MCF7, 48 h; for CC50: read-out: LC50; for TGI: MCF-7 (Breast Cancer), 48 h, SRB
[21] = test system: CCRF-CEM; experiment: NCI DTP 60 cell line screen, SRB; conditions: 48 h; for TGI: CCRF-CEM (Leukemia), SRB; for GI50 / CC50: Homo sapiens, CCRF-CEM; for CC50: read-out: LC50
[22] = read-out: 60 lines MG_MID, GI50

| Compound | GI50 [1, 22] [µM] | CC50 [1] [µM] | 60 lines MG_MID, TGI [1] [µM] | TGI [6] [µM] | TGI [7] [µM] | TGI [9] [µM] | TGI [10] [µM] | GI50 [11] [µM] | CC50 [11] [µM] | GI50 [14] [µM] | CC50 [14] [µM] | TGI [14] | TGI [15] [µM] | GI50 [15] [µM] | CC50 [15] [µM] | GI50 [16] [µM] | CC50 [16] [µM] | TGI [16] [µM] | GI50 [17] [µM] | CC50 [17] [µM] | also measured |
| --- | --- | --- | --- | --- | --- | --- | --- | --- | --- | --- | --- | --- | --- | --- | --- | --- | --- | --- | --- | --- | --- |
| O=C(O)CCN1C(=O)/C(=C/C(Cl)=C/c2ccc([N+](=O)[O-])cc2)SC1=S [Compound 2h, 3-{5-[(Z,2Z)-2-Chloro-3-(4-nitrophenyl)-2-propenylidene]-4-oxo-2-thioxothiazolidin-3-yl}propanoic acid] | 1.57 | 65 | 13.3 | 3.22 | 0.515 | 2.47 | > 100 | 0.27 | > 100 | 2.83 | 63.4 | 10.9 µM | > 100 | 0.35 | > 100 | 2.12 | > 100 | 9.74 | 3.36 | > 100 | GI50 ([1]; read-out: GI50 concentration range): 0.01 to 0.02 µM; GI50 [2]: 2.69 µM; GI50 [3]: 3.67 µM; GI50 [4]: 3.62 µM; GI50 [5]: 1.63 µM; TGI [8]: 23.6 µM; GI50 [12]: 12.5 µM; CC50 [12]: > 100 µM; GI50 [13]: 0.802 µM; CC50 [13]: 65.1 µM; TGI [17]: 21.6 µM; GI50 [18]: 0.794 µM; CC50 [18]: 43.1 µM; TGI [18]: 3.68 µM; GI50 [19]: 0.135 µM; CC50 [19]: 66.6 µM; TGI [19]: 6.05 µM; GI50 [20]: 0.239 µM; CC50 [20]: > 100 µM; TGI [20]: 14.4 µM |
| O=C1/C(=C/C(Cl)=C/c2ccc([N+](=O)[O-])cc2)SC(=S)N1/N=C\C(Cl)=C\c1ccc([N+](=O)[O-])cc1 [Compound 2c, 5-[(Z,2Z)-2-Chloro-3-(4-nitrophenyl)-2-propenylidene]-3-[(Z,2Z)-2-chloro-3-(4-nitrophenyl)-2-propenylideneamino]-2-thioxo-4-thiazolidinone] | 18 | 81.7 | 43.1 | 31.6 | 28.8 | 30.7 | 65.3 | 2.73 | 23.3 | 87.6 | > 100 | > 100 µM | > 100 | 56.2 | > 100 | 17 | > 100 | 41.3 | 18 | 77.1 | GI50 [2]: 4.43 µM; GI50 [3]: 6.34 µM; GI50 [4]: 3.6 µM; GI50 [5]: 1.59 µM; GI50 [13]: 19 µM; CC50 [13]: 69.8 µM; TGI [21]: 35.3 µM; GI50 [21]: 4.42 µM; CC50 [21]: > 100 µM; TGI [17]: 37.3 µM; GI50 [18]: 13.3 µM; CC50 [18]: 58.9 µM; TGI [18]: 28.0 µM; GI50 [19]: 0.821 µM; CC50 [19]: 41.1 µM; TGI [19]: 12.7 µM; GI50 [20]: 4.08 µM; CC50 [20]: 83.7 µM; TGI [20]: 19.8 µM |
| O=C(O)C(Cc1ccccc1)N1C(=O)/C(=C/C(Cl)=C/c2ccc([N+](=O)[O-])cc2)SC1=S (stereo not drawn) [Compound 2j, 2-{5-[(Z,2Z)-2-Chloro-3-(4-nitrophenyl)-2-propenylidene]-4-oxo-2-thioxothiazolidin-3-yl}-3-phenylpropanoic acid] | 4.09 | 73.9 | 40.6 | 4.86 | 3.26 | 5.01 | 3.71 | 2.01 | 56.7 | > 100 | > 100 | >100/>100/>100 μM | > 100 | 2.45 | > 100 | 2.21 | > 100 | > 100 | 2.59 | > 100 | TGI [8]: 4.68 µM; GI50 [12]: 1.96 µM; CC50 [12]: > 100 µM; GI50 [13]: 1.87 µM; CC50 [13]: > 100 µM; TGI [21]: > 100 µM; GI50 [21]: 2.92 µM; CC50 [21]: > 100 µM; TGI [17]: 7.85 µM; GI50 [18]: 2.99 µM; CC50 [18]: > 100 µM; TGI [18]: > 100 µM; GI50 [19]: 1.76 µM; CC50 [19]: 6.98 µM; TGI [19]: 3.51 µM; GI50 [20]: 2.38 µM; CC50 [20]: > 100 µM; TGI [20]: 10.7 µM |
| O=C1/C(=C/C(Cl)=C/c2ccc([N+](=O)[O-])cc2)SC(=S)N1c1ccc(O)cc1 [Compound 2f, 5-[(Z,2Z)-2-Chloro-3-(4-nitrophenyl)-2-propenylidene]-3-(4-hydroxyphenyl)-2-thioxo-4-thiazolidinone] | 2.8 | 80.8 | 32.3 | 3.11 | 3.70 | 3.83 | 7.71 | 1.27 | 6.92 | 2.49 | > 100 | 9.02 µM | > 100 | 4.34 | > 100 | 2.55 | > 100 | 34.5 | 2.26 | > 100 | TGI [8]: 47.7 µM; GI50 [12]: 25.1 µM; CC50 [12]: > 100 µM; TGI [17]: 13.8 µM; GI50 [18]: 1.63 µM; CC50 [18]: > 100 µM; TGI [18]: 6.13 µM; GI50 [19]: 0.977 µM; CC50 [19]: > 100 µM; TGI [19]: 41.8 µM; GI50 [20]: 0.401 µM; CC50 [20]: > 100 µM; TGI [20]: 28.0 µM |
